Experimental data reported in patent publication US20230270721A1, “INHIBITION OF BAX-MEDIATED CELL DEATH BY ELTROMBOPAG” (Albert Einstein College of Medicine, priority 2020, published 2023).

How the values were obtained:
BAX in BAK KO MEFs = molecular target: T1, BAX in BAK KO MEFs (Mus musculus, UniProt Q07813); experiment: Cellular Thermal Shift Assay (CETSA); type: cell-based; settings: 10 pM EO, 2 hours
T1 construct: endogenous in cells; host or cells: BAK KO mouse embryonic fibroblasts
Protocol: BAK KO MEFs were seeded in a 10 cm dish for 18-24 hours or until approximately 80% confluent. The media was removed and replaced with media lacking FBS, and cells were treated with 10 pM EO as a 10X stock in H2O or vehicle for 2 hours. The media was then removed, and cells were harvested using a cell scraper and washed twice with PBS. Cells were then resuspended in PBS to 6×10^6 cells/mL, and […] was transferred to PCR tubes. Cells were then heated in a Biorad C1000 Touch Thermal Cycler for 3 minutes using a temperature gradient (50, 52.1, 55.4, 59.4, 64.9, 69.2, 72.1, and 74° C.). Cells remaining at room temperature (25° C.) served as a control. All cells were lysed by three cycles of freeze-thawing using liquid nitrogen. Samples were then centrifuged at 2×10^4 g for 15 minutes. The supernatants were collected and resolved by SDS-PAGE with an N-terminal BAX antibody (Cell Signaling, 2772S). Samples were analyzed and quantified using a Li-Cor Odyssey Clx and normalized to 25° C. (100%) and 74° C.(0%).
To confirm direct engagement of BAX, Cellular Thermal Shift Assay (CETSA) was performed in BAK KO MEFs.

BAX-/-MEFs = experiment: Caspase 3/7 assay, STS-induced apoptosis, MEFs expressing only BAK; type: cell-based, mouse; settings: 3 µM STS, 6 hr
Source text: FIGS. 7A, 7B, 7C, 7D, 7E, and 7F are a set of diagrams showing that eltrombopag inhibits BAX translocation and BAX-mediated apoptosis in cells. […] BAX translocation is based on antibody-based detection of BAX and mitochondrial protein TOMM20. Representative confocal micrographs from three independent biological experiments. Scale bar, 20 µm. […] Data represent ±SEM of three independent biological replicates. Two-sided t test, ****P < 0.0001; ***P < 0.001; **P < 0.01; *P < 0.05; ns, P > 0.05. […] Actin and VDAC are loading controls for cytosolic and mitochondrial fractions, respectively. FIGS. 7D and 7E show a caspase 3/7 assay of BAK-/- mouse embryonic fibroblasts (MEFs) (FIG. 7D) and BAX-/-MEFs (FIG. 7E) in response to 3 µM STS and the presence or absence of various doses of EO for 6 hr. […]
It is important to note that THPO-receptor agonist activity of EO is highly specific to the human and chimpanzee THPO-receptors, making mouse cell lines ideal for studying EO modulation of BAX-dependent activity independent of THPO-mediated effects (Erickson-Miller, C. L. et al. Stem Cells 27, 424-430 (2009)). First, mitochondrial cytochrome c release, a hallmark of BAX activation and BAX-dependent apoptosis, was evaluated. […] Next, mitochondrial translocation of cytosolic BAX upon treatment with either BIM BH3 or staurosporine (STS) in BAK KO MEFs was evaluated.

3T3 cells = experiment: Cell viability assay (CellTiter-Glo), ABT-263 + S63845; type: cell-based, murine; settings: 1 µM ABT-263 and 1 µM S63845, 24 hr
Protocol: 3T3 cells were maintained in media identical to that of MEFs. 3T3 cells were seeded (1×10^4 cells/well) in 96-well opaque plates for 18-24 hr. The media was removed and replaced with media lacking FBS, and cells were treated with EO as a 10X stock in H2O at the indicated doses for 2 hr before addition of 10% FBS. Cells were then treated with 1 µM each of ABT-263 and S63845. Caspase 3/7 activation was measured at 4 hr by addition of the Caspase-Glo 3/7 chemiluminescence reagent in accordance with the manufacturer’s protocol (Promega). Luminescence was detected by an F200 PRO microplate reader (TECAN). Percentage caspase activation was normalized to ABT-263 + S63845 alone (100%) and untreated cells (0%). Viability assays were performed at 24 hr by addition of CellTiter-Glo according to the manufacturer’s protocol (Promega). Luminescence was detected by an F200 PRO microplate reader (TECAN). Percentage viability was normalized to untreated cells (100%).
Next, whether EO is capable of rescuing cell death in cells expressing both BAX and BAK was determined. 3T3 cells, a murine fibroblast cell line, were treated with a combination of BH3-mimetics navitoclax (ABT-263) and S63845, which only in combination cause significant cytotoxicity in fibroblast cells.

BAX K21E = molecular target: T2, BAX K21E (Homo sapiens, UniProt Q07812, K21E); experiment: Liposomal permeabilization assay, trigger site mutant K21E; type: biochemical; settings: 250 nM BAX and 5 nM tBID
T2 construct: Human full-length (1-192) wild-type BAX (Q07812); made in house; host or cells: E. coli BL21 (DE3) CodonPlus (DE3)-RIPL
Protocol: Lipids (Avanti Polar Lipids) at the following ratio, phosphatidylcholine 48%, phosphatidylinositol 10%, dioleoyl phosphatidylserine 10%, phosphatidylethanolamine, 28%, and tetraoleoyl cardiolipin 4%, were mixed in a total of 1 mg, dried and resuspended in 10 mM HEPES, pH 7, 200 mM KCI, and 5 mM MgCl2 with 12.5 mM 8-aminonaphthalene-1,3,6-trisulfonic acid (ANTS) dye and 45 mM p-xylene-bis-pyridinium bromide (DPX) quencher (Molecular Probes) using a water bath sonicator. Liposomes were formed by extrusion of the suspension using Avanti Mini-Extruder (Cat # 610000) with polycarbonate membranes of 0.1 µm pore size (Avanti Polar Lipids). […] ANTS/DPX release was quantified based on the increase in fluorescence intensity that occurs when the ANTS fluorophore is separated from the DPX quencher upon release from the liposomes into solution. Fluorescence (λex = 355 nm and λem = 520 nm) was measured at 1 minute intervals at room temperature (22-25° C.) indicated using a Tecan Infinite M1000 plate reader. In the case of heat activation, reactions were set up as described in the absence of tBID or BIM, and experiments were recorded at 42° C. The percentage release of ANTS/DPX at any given time point was calculated as percentage release=((F-F0)/(F100-F0))(100), where F0 and F100 are baseline and maximal fluorescence, respectively. […]

T2 sequence (Q07812 whole entry K21E): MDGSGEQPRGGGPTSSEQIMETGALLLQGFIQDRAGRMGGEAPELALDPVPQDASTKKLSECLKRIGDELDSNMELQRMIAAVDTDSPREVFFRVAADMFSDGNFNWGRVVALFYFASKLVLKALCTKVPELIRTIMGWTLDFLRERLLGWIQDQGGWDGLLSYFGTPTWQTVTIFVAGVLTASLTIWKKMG
T1 sequence (Q07813 whole entry): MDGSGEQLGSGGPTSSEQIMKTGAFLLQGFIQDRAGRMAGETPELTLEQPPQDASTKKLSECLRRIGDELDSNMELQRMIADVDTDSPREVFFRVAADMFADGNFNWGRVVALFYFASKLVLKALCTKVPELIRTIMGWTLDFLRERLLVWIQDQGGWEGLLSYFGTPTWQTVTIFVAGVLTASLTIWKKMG

## CC1=NN(c2ccc(C)c(C)c2)C(=O)/C1=N\Nc1cccc(-c2cccc(C(=O)O)c2)c1O [EO, eltrombopag]
BAX in BAK KO MEFs
  lowering of BAX TM (CETSA): 9 °C
BAX-/-MEFs
  STS-induced apoptosis mediated by caspase 3/7 activity: no effect
3T3 cells
  cell viability: dose-dependent rescue of cell viability
BAX K21E
  inhibition of liposomal release versus BAX WT: not reduced inhibition
